Reference: PubChem BioAssay AID179 (DTP/NCI, 2004)
Active and inactive are the calls of the source.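 How the source made its calls: active means compounds giving half or more protection of infected cells from virus-caused growth loss, again on retest; inactive means the rest.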 Where a SMILES comes first, the peptide text is derived from it. [ ]: non-standard residue; d: D form. The star is where a group is joined. NMeAc5c = CNC1(C(=O)O)CCCC1; Cbz = O=C(OCc1ccccc1)*; Boc = CC(C)(C)OC(=O)*; OBn = c1ccc(CO*)cc1; tBu = CC(C)(C)*

Tested on: CEM cells HIV-1 protection, formazan growth assay
Assay: NCI AIDS Antiviral Assay
Conditions: for IC50: measured here: growth of uninfected CEM cells
Method in brief: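 Screen of anti-HIV-1 activity in human CEM cells using a formazan-based growth measurement at five drug concentrations. Hits with 50% or greater protection were repeated, and confirmation required reproducible complete protection.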

| SMILES | EC50 | IC50 | outcome |
| --- | --- | --- | --- |
| Cn1c(=O)cc(C=Nc2ccc(S(N)(=O)=O)cc2)c2ccccc21 | > 200 µM | 1.51 µM | – |
| COC(=O)CCC1(C)C2CCC1(C)/C(=N/O)C2 (configuration not stated) | > 200 µM | > 200 µM | – |
| CC12CCCCC1C(=O)C2(Cl)Cl (configuration not stated) | – | – | inactive |
| O=C(O)c1nc2ccc(C(F)(F)F)cc2[nH]c1=O | > 200 µM | > 200 µM | – |
| COc1cccc(C2c3cc4c(cc3OC(Nc3ccccc3)C2C)OCO4)c1O (configuration not stated) | > 200 µM | 3.55 µM | – |
| CC(OC(C)(C)C)C(NC(=O)C(CCCCNC(=O)OC(C)(C)C)NC(=O)C(Cc1c[nH]c2ccccc12)NC(=O)OCc1ccccc1)C(=O)NC(Cc1ccccc1)C(=O)N(C)C1(C(=O)NC(Cc2ccccc2)C(=O)OCc2ccccc2)CCCC1 (configuration not stated) (Cbz-WK(Boc)T(tBu)F[NMeAc5c]F-OBn; configuration not given here) | > 50.1 µM | 38.9 µM | – |
| Cc1ccc(S(=O)(=O)N2CCC2c2ccccc2)cc1 (configuration not stated) | – | – | inactive |
| O=C(/C=C/c1ccc(O)c(O)c1)OC1C[C@@](O)(C(=O)O)C[C@@H](O)[C@H]1OC(=O)/C=C/c1ccc(O)c(O)c1 (some centres not stated) | > 347 µM | 155 µM | – |
| COc1ccc([N+](=O)[O-])c2c(NCCC[N+](C)(C)[O-])c3ccccc3nc12 | > 200 µM | 3.09 µM | – |
| COc1cc(C2c3cc4c(cc3OC(NCCO)C2C)OCO4)cc(OC)c1O (configuration not stated) | > 200 µM | 3.16 µM | – |
| CCOC(=O)C(NC(C)=O)(Nc1ccc(F)cc1)C(F)(F)F (configuration not stated) | – | – | inactive |
| O=P(O)(O)CCCNO | > 200 µM | > 200 µM | – |
| O=C1CSC(c2ccc(Cl)cc2Cl)N1c1ccc(Oc2ccc(Cl)cc2)c(Cl)c1 (configuration not stated) | > 100 µM | 26.3 µM | – |
| CCOC(=O)/C(Cl)=C1\SN(C(=O)OCC)N=C1C | > 102 µM | 10.7 µM | – |
| Cn1ncc2c(=O)[nH]cnc21 | > 316 µM | > 316 µM | – |
| O=c1cc(-c2ccccc2)oc2cc(OCCCOc3ccc4c(=O)cc(-c5ccccc5)oc4c3)ccc12 | > 3.89 µM | > 3.89 µM | – |
| CC(=O)Oc1cccc2c1[nH]c(=O)c1c(OC(C)=O)c3c(cc12)OCO3 | – | – | inactive |
| Cc1cc(C)c(C)c(-n2[nH]c(=O)n(C)c2=O)c1C | > 200 µM | > 200 µM | – |
| CCN(CC)c1ccc2cc(-c3nc4ccccc4c(=O)[nH]3)c(=N)oc2c1 | > 100 µM | > 100 µM | – |
| C#CCNC(=O)NCCCCC(NC(=O)OCc1ccccc1)C(=O)OCc1ccccc1 (configuration not stated) | > 151 µM | 97.7 µM | – |
| Cc1ccccc1NC(=O)c1[nH]c(=S)nc(N)c1-c1ccccc1C | > 97.7 µM | > 97.7 µM | – |
| COc1ccc(-c2nc(SC3OC(COC(C)=O)C(OC(C)=O)C(OC(C)=O)C3OC(C)=O)n(C3OC(COC(C)=O)C(OC(C)=O)C(OC(C)=O)C3OC(C)=O)c(=O)c2C#N)cc1 (configuration not stated) | – | > 100 µM | – |

| SMILES | EC50 | IC50 | outcome |
| --- | --- | --- | --- |
| CCCCCCCCCC=C(c1cc(Br)c(OC)c(C(=O)OC)c1)c1cc(Br)c(OC)c(C(=O)OC)c1 | > 29.5 µM | > 29.5 µM | – |
| O=C(CNc1ccccc1Cl)Nn1c(-c2ccccc2)nc2ccccc2c1=O | > 200 µM | 30.2 µM | – |
| Cc1ccc(S(=O)(=O)OCCC2CN(C(=O)OCc3ccccc3)C(C)(C)O2)cc1 (configuration not stated) | > 200 µM | 14.1 µM | – |
| O=S(=O)(Sc1ccccc1)C(c1ccccc1)c1ccccc1 | > 132 µM | 21.4 µM | – |
| CCOP(=O)(OCC)/C(=C/NC(=S)c1cccnc1)C(=O)OC | > 200 µM | 34.7 µM | – |
| O=c1c(Br)cc2nc3ccccc3sc-2c1Br | > 10 µM | > 10 µM | – |
| CC1OC2COC(C)OC2C(C2CN2)O1 (configuration not stated) | > 933 µM | 589 µM | – |
| O=C(O)c1ccccc1CC1Cc2ccccc2C1 | > 200 µM | > 200 µM | – |
| CCCc1ccc(NCc2cc(OC)c(OC)c(OC)c2)cc1 | > 74.1 µM | 31.6 µM | – |
| CCOC(=O)/C(C1=NCCN1C)=C(\O)c1ccccc1 | > 912 µM | > 912 µM | – |
| CC(=S)N/C=C(\C#N)S(=O)(=O)c1ccc(C)cc1 | > 200 µM | > 200 µM | – |
| O=P(O)(O)C1(P(=O)(O)O)CC1 | > 251 µM | > 251 µM | – |
| NC1=NS(=O)(=O)N=C(N)C1=NNc1cccc(Cl)c1 | > 832 µM | 138 µM | – |
| O=c1[nH]cc(CN2CCOCC2)c(=O)[nH]1 | > 617 µM | > 617 µM | – |
| CCC12CCCN(Cc3ccccc3)C1c1c(n(C)c3ccccc13)C(C(=O)OC)C2 (configuration not stated) | > 32.4 µM | > 32.4 µM | – |
| COc1cccc(-c2nc(-c3cnccn3)n(C3OC(CO)C(O)C(O)C3O)n2)c1 (configuration not stated) | > 200 µM | > 200 µM | – |
| Cc1ccccc1NC(=O)c1cc(-c2ccc([N+](=O)[O-])cc2)nc(=S)[nH]1 | > 490 µM | > 490 µM | – |
| COc1cc(O)c2c(c1)C(=O)c1cc3c(c(O)c1C2=O)C(OC1OC(C)C(O)C(O)C1OC)C(OC)C(C)(O)C3=O (configuration not stated) | > 200 µM | 3.16 µM | – |
| COc1ccc(-c2cc(-c3cc(C)cc(Br)c3O)no2)cc1 | > 200 µM | > 200 µM | – |
| Cc1ccc(OCCn2cc(Nc3ccccc3)c(=O)n(CCOc3ccc(C)cc3)c2=O)cc1 | > 200 µM | 174 µM | – |
| CCOC(=O)N[C@@H]1C2CC(=O)C(O2)[C@@H]1OC (some centres not stated) | – | – | inactive |
| NC(Cc1ccc(OCc2ccccc2)cc1)C(=O)NC(Cc1ccccc1)C(=O)Oc1c(Cl)c(Cl)c(Cl)c(Cl)c1Cl (configuration not stated) | > 200 µM | 28.8 µM | – |
